Like-named read-outs stand apart in the source and are kept apart here. Marks after values point to notes of the source that are not given here.
Columns and labels:
[1] = test system: flower bud dieback on pear trees (Conference variety); experiment: Flower bud quality field trial against flower bud dieback on young pear trees; assay type: in vivo, pear trees (Conference cultivar); details: for Good quality buds (%) 1 yw S: 1-year old wood side position; for Good quality buds (%) 1 yw S / Good quality buds (%) 1 yw T / Good quality buds (%) 2 yw / Good quality buds (%) Per tree: treated 2004 and 2005, 2006 flower buds; for Good quality buds (%) 1 yw T: 1-year old wood terminal position; for Good quality buds (%) 2 yw: 2-year old wood
Experimental: (§1) During three consecutive years 2004, 2005 and 2006, a trial was carried out on young pear trees of the Conference cultivar on a Quince Adams stock. The pear trees of this orchard were planted in 1999 according to the system of a single row at a planting distance of 3.5 m between the rows and 1.5 m in the row with a tree height of 3 m.
(§2) During the 2004 trial, three products were compared in an arbitrary block design with 10 trees per plot in four repeats: the observations were made on the 8 trees inside the plot. […] The applications were in the post-flower period at an interval of 10 days.
(§3) In 2005, the same applications were repeated on the same trees.
In 2006, the complete trial was repeated on new trees in the same orchard. The fosetyl-Al doses varying between 2 and 3.75 kg/ha of standard orchard (corresponding to doses varying from 1.33 to 2.50 kg/ha of foliar surface area) were applied in the post-flower period during the months of May and June at an interval of 5 or 10 days between the treatments. Benzothiadiazole applied at a dose of 200 g/ha of standard orchard (corresponding to a dose of 133 g/ha of foliar surface area) was included as reference product in order to induce plant defense reactions by the trees.
(§4) After one year during flowering, the effect of the treatments on the quality of the flower bud was evaluated. Statistical analysis of the various parameters is performed (Unistat Statistical Package, Version 5.5). The original or processed data are analyzed according to the General Linear Model and the treatment means are separated in a standard manner using the Duncan multiple classification test (5% level).

[2] = test system: pear trees (Conference cultivar); experiment: Productivity of the pear trees after the treatments (field trial); assay type: in vivo; details: 2006, treated 2004 and 2005
Experimental: as §1, §2, §3, §4

[3] = flower buds 2006; for Fosetyl-Al residue: 10 days
Text: In 2006, the magnitude of the levels of fosetyl-Al and phosphorous acid residues in the developing flower buds was monitored on three plots: in the control untreated plot, in the plot treated with fosetyl-Al based on 3×3.75 kg/ha (application on 18/05, 30/05 and 08/06) and in the plot treated with fosetyl-Al based on 6×2.0 kg/ha (application on 18/05, 30/05, 08/06, 19/06, 29/06 and 10/07).
On each date (with the exception of the first sampling date), 40 flower buds with their surrounding leaves were gathered. On the first sampling date, 40 flower buds were gathered without leaves.
The flower bud samples were taken before the next treatment on the following dates: 30/05, 08/06, 19/06, 28/06, 10/07 and 28/08. For the two fosetyl-Al and phosphorous acid products, the levels of residues in the flower buds were determined with the aid of an LC-MS-MS analytical method. The limit of quantification (LOQ) was 0.1 mg/kg for fosetyl-Al, 2 mg/kg for phosphorous acid and 3 mg/kg for the total residue expressed as fosetyl-Al equivalent. The total residue is the sum of the residues derived from fosetyl-Al and phosphorous acid expressed as fosetyl-Al equivalent.
The results are calculated according to the following formula:
[formula] in which: • Mfosetyl-Al represents the molecular weight of fosetyl-Al: 354.1 g/mol • Mphosphorous acid represents the molecular mass of phosphorous acid: 82 g/mol; multiplied by 3, since 1 mol of fosetyl-Al corresponds to 3 mol of phosphorous acid.
For the pear bud samples, the fosetyl-Al and phosphorous acid residues are extracted with the aid of an acetonitrile/water (50:50, v/v) mixture. After centrifugation and dilution of the sampling material, the residues are quantified by HPLC and detected by tandem mass spectrometry with electrospray ionization. The quantification is performed by external standardization. The statistical analysis is performed per parameter on the complete set of data for the different sampling dates.

[4] = test system: pear trees (Conference cultivar); details: plot treated at 3.75 kg/ha, 2004 treatments
Text: as §2, §3

[5] = 3 x 3.75 kg/ha May interval 10 + 3 x 3.75 kg/ha June interval 14
[6] = 3 x 3.75 kg/ha May, interval 10
[7] = 3 x 3.75 kg/ha May, primary efflorescence
[8] = treated 2004, 2005 flower buds, 3 x 3.75 kg/ha May interval 10 + 1 x 3.75 kg/ha AH
[9] = treated 2004, 2005 flower buds, 3 x 3.75 kg/ha May interval 10 + 3 x 3.75 kg/ha June interval 14
[10] = treated 2004, 2005 flower buds, 3 x 3.75 kg/ha May, interval 10
[11] = treated 2006, 2007 flower buds, 3 x 3.75 kg/ha June, interval 10
[12] = treated 2006, 2007 flower buds, 3 x 3.75 kg/ha May, interval 10
[13] = treated 2006, 2007 flower buds, 6 x 2 kg/ha June, interval 5
[14] = treated 2006, 2007 flower buds, 6 x 2 kg/ha May, interval 5
[15] = treated 2006, 2007 flower buds, 6 x 2 kg/ha May-June, interval 10
[16] = 3 x 3.75 kg/ha May interval 10 + 3 x 3.75 kg/ha June interval 14, object excluded from statistical analysis

In the case of `CCO[PH](=O)O.[Al]` [Fosetyl-Al, aluminum ethyl hydrogen phosphonate], the “Good quality buds (%) 1 yw S” value [1, 5] is reported as 68.4%, the “Good quality buds (%) 1 yw S” value [1, 6] is reported as 56.5% and the “Good quality buds (%) 1 yw S” value [1, 7] is reported as 69.8%. The “Good quality buds (%) 1 yw T” value [1, 5] was 97.2%, the “Good quality buds (%) 1 yw T” value [1, 6] was 82.7% and the “Good quality buds (%) 1 yw T” value [1, 7] was 90.2%. For the same compound, the “Good quality buds (%) 2 yw” value [1, 5] was 86.1%, the “Good quality buds (%) 2 yw” value [1, 6] was 75.1% and the “Good quality buds (%) 2 yw” value [1, 7] was 68.2%. For the same compound, the “flower bud quality with an additional treatment after harvesting versus post-flower treatments alone” value ([1]; 2004 treatments, 2005 buds) was “results comparable”, the “Buds of good quality” value [1, 8] was 88.3% and the “Number of incomplete buds/tree” value [1, 8] was 9.2 buds/tree. The “Buds of good quality” value [1, 9] was 89.3%, the “Number of incomplete buds/tree” value [1, 9] was 7.9 buds/tree and the “Buds of good quality” value [1, 10] was 88.4%. For the same compound, the “Number of incomplete buds/tree” value [1, 10] was 7.9 buds/tree, the “Good quality buds (%) Per tree” value [1, 5] was 92.3% and the “Good quality buds (%) Per tree” value ([1]; 3 x 3.75 kg/ha May interval 10 + 3 x 3.75 kg/ha June interval 14, listed as fosetyl-Al) was 92%. For the same compound, the “Good quality buds (%) Per tree” value [1, 6] was 85.9%, the “Good quality buds (%) Per tree” value ([1]; 3 x 3.75 kg/ha May, interval 10, listed as fosetyl-Al) was 86% and the “Good quality buds (%) Per tree” value [1, 7] was 75.4%. The “Good quality buds (%) Per tree” value ([1]; 3 x 3.75 kg/ha May, primary efflorescence, listed as fosetyl-Al) was 75%, the “percentages of flower buds that have died back or that are incomplete” value ([1]; treated 2006, 2007 buds, all objects treated with fosetyl-Al) was “significantly reduced” and the “Buds that have died back (%)” value [1, 11] was 31.6%. The “Good quality buds (%)” value [1, 11] was 62.5%, the “Number of incomplete buds/tree” value [1, 11] was 5.9 buds/tree and the “Buds that have died back (%)” value [1, 12] was 33.4%. The “Good quality buds (%)” value [1, 12] was 59.3%, the “Number of incomplete buds/tree” value [1, 12] was 7.2 buds/tree and the “Good quality buds (%)” value ([1]; treated 2006, 2007 flower buds, 3 x 3.75 kg/ha May, interval 10, listed as fosetyl-Al) was 59%. The “Buds that have died back (%)” value [1, 13] was 31.5%, the “Good quality buds (%)” value [1, 13] was 63.5% and the “Number of incomplete buds/tree” value [1, 13] was 5 buds/tree. The “Buds that have died back (%)” value [1, 14] was 33%, the “Good quality buds (%)” value [1, 14] was 59.6% and the “Number of incomplete buds/tree” value [1, 14] was 7.4 buds/tree. The “Good quality buds (%)” value ([1]; treated 2006, 2007 flower buds, 6 x 2 kg/ha May, interval 5, listed as fosetyl-Al) was 59%, the “Buds that have died back (%)” value [1, 15] was 33.9% and the “Good quality buds (%)” value [1, 15] was 61.2%. For the same compound, the “Number of incomplete buds/tree” value [1, 15] was 4.9 buds/tree, the “Average weight (g)” value [2, 16] was 137.9* g and the Number of fruits/tree [2, 16] was 152.2* fruits/tree. The “Productivity (kg/tree)” value [2, 16] was 21* kg/tree, the “Average weight” value [2, 6] was 144.8 g and the Number of fruits/tree [2, 6] was 148.8 fruits/tree. The “Productivity (kg/tree)” value [2, 6] was 21.5 kg/tree, the “Average weight” value [2, 7] was 157.7 g and the Number of fruits/tree [2, 7] was 140.4 fruits/tree. For the same compound, the “Productivity (kg/tree)” value [2, 7] was 22.1 kg/tree, the “time the level of fosetyl-Al residue was maintained after the last treatment” value ([3]; dose of 3.75 kg/ha) was “approximately 4 weeks” and the Fosetyl-Al residue ([3]; fosetyl-Al 3 x 3.75 kg/ha May, sampling 08/06) was 12.92 mg/kg. For the same compound, the Fosetyl-Al residue ([3]; fosetyl-Al 3 x 3.75 kg/ha May, sampling 10/07) was 2.14 mg/kg, the Fosetyl-Al residue ([3]; fosetyl-Al 3 x 3.75 kg/ha May, sampling 19/06) was 10.65 mg/kg and the Fosetyl-Al residue ([3]; fosetyl-Al 3 x 3.75 kg/ha May, sampling 28/06) was 10.83 mg/kg. The Fosetyl-Al residue ([3]; fosetyl-Al 3 x 3.75 kg/ha May, sampling 28/08) was 0.11 mg/kg, the Fosetyl-Al residue ([3]; fosetyl-Al 3 x 3.75 kg/ha May, sampling 30/05) was 0.1 mg/kg and the Fosetyl-Al residue ([3]; fosetyl-Al 6 x 2 kg/ha May-June, sampling 08/06) was 10.64 mg/kg. It also gave a Fosetyl-Al residue ([3]; fosetyl-Al 6 x 2 kg/ha May-June, sampling 10/07) of 2.86 mg/kg, a Fosetyl-Al residue ([3]; fosetyl-Al 6 x 2 kg/ha May-June, sampling 19/06) of 4.52 mg/kg and a Fosetyl-Al residue ([3]; fosetyl-Al 6 x 2 kg/ha May-June, sampling 28/06) of 20.56 mg/kg. The Fosetyl-Al residue ([3]; fosetyl-Al 6 x 2 kg/ha May-June, sampling 28/08) was 0.18 mg/kg, the Fosetyl-Al residue ([3]; fosetyl-Al 6 x 2 kg/ha May-June, sampling 30/05) was 0.1 mg/kg and the phytotoxicity [4] was “absence of phytotoxicity”.
